Assay type in all cases: cell-based
In assay [1] the test system is Human Non-Small Cell Lung Cancer Cell Line (A549). Briefly: Tumor cell proliferation assay (MTT), A549. The note with it: for inhibition at 10 µM: concentration of 10^−5 mol/L, preliminary screening, 72 hours, read-out: Inhibition rate % A549; for IC50: secondary screening, 48 hours. The method in brief: A
Assay [2] relates to Human Pancreatic Carcinoma Cell Line (BXPC-3). Briefly: Tumor cell proliferation assay (MTT), BXPC-3. The note with it: for inhibition at 10 µM: concentration of 10^−5 mol/L, preliminary screening, 72 hours, read-out: Inhibition rate % BXPC-3; for IC50: secondary screening, 48 hours.
Assay [3] has as its system Human Colon Cancer Cell Line (HT-29). Briefly: Tumor cell proliferation assay (MTT), HT29. The conditions noted are these: for inhibition at 10 µM: concentration of 10^−5 mol/L, preliminary screening, 72 hours, read-out: Inhibition rate % HT29; for IC50: secondary screening, 48 hours.
Assay [4] deals with Human Gastric Cancer Cell Line (BGC). Briefly: Tumor cell proliferation assay (MTT), BGC. The note with it: for inhibition at 10 µM: concentration of 10^−5 mol/L, preliminary screening, 72 hours, read-out: Inhibition rate % BGC; for IC50: secondary screening, 48 hours.
Assay [5] has as its system Human Pancreatic Carcinoma Cells (PANC-1). The assay can be described thus: Tumor cell proliferation assay (MTT), PANC-1. The conditions noted are these: for inhibition at 10 µM: concentration of 10^−5 mol/L, preliminary screening, 72 hours, read-out: Inhibition rate % PANC-1; for IC50: secondary screening, 48 hours.

Here are results for 12 molecules from patent US8084621B2, “3-Pyrrolo[b]cyclohexylene-2-dihydroindolinone derivatives and uses thereof” (Jiangsu Simcere Pharmaceutical R&D Co. Ltd., priority 2006, dated 2011).

What is called inhibition is the drop in the measured response relative to a control, in per cent. What is called IC50 is the concentration at which inhibition is half-maximal. High values mean a need for much substance, low ones inhibition by little substance. With `CCN(CC)CCNC(=O)c1c(C)[nH]c2c1CCC/C2=C1/C(=O)Nc2ccc(F)cc21` [I-2, N-(2-(diethylamino)ethyl)-2-methyl-7-[1,2-dihydro-5-fluoro-2-oxo-3H-indol-(Z)-3-ylidene]-4,5,6,7-tetrahydro-1H-indole-3-carboxamide], the inhibition at 10 µM in assay [1] turned out to be 10.2%; in assay [2], 79.4%; in assay [3] it was 97.4%; in assay [4], 71%; in assay [5] it was 70.6%. Moreover, the IC50 in assay [2] was 520 nM; in assay [3] it was 1200 nM; in assay [4], 6110 nM.
With `CCN(CC)CCNC(=O)c1c(C)[nH]c2c1CCC/C2=C1/C(=O)Nc2ccc(Cl)cc21` [I-3, N-(2-(diethylamino)ethyl)-2-methyl-7-[1,2-dihydro-5-chloro-2-oxo-3H-indol-(Z)-3-ylidene]-4,5,6,7-tetrahydro-1H-indole-3-carboxamide], the inhibition at 10 µM in assay [1] turned out to be 55.5%; in assay [2], 96%; in assay [3], 65.1%; in assay [4] it was 78.1%; in assay [5], 69.8%. For the same molecule, the IC50 was determined as 4950 nM in assay [1]; 1950 nM in assay [2]; 6480 nM in assay [3]; 2030 nM in assay [4]; 1940 nM in assay [5].
On to `CCN(CC)CCNC(=O)c1c(C)[nH]c2c1CCC/C2=C1/C(=O)Nc2ccc(C)cc21` [I-4, N-(2-(diethylamino)ethyl)-2-methyl-7-[1,2-dihydro-5-methyl-2-oxo-3H-indol-(Z)-3-ylidene]-4,5,6,7-tetrahydro-1H-indole-3-carboxamide], for which the inhibition at 10 µM came out at 67.5% in assay [1], 78.4% in assay [2] and 89.9% in assay [3]. Besides, the half-inhibitory concentration (IC50) in assay [1] came to 1010 nM.
In the case of `CCN(CC)CCNC(=O)c1c(C)[nH]c2c1CCC/C2=C1/C(=O)Nc2ccccc21` [I-5, N-(2-(diethylamino)ethyl)-2-methyl-7-[1,2-dihydro-2-oxo-3H-indol-(Z)-3-ylidene]-4,5,6,7-tetrahydro-1H-indole-3-carboxamide], the inhibition at 10 µM in assay [1] was determined as 6.71%; in assay [2] it was 89.4%; in assay [3], 91.5%; in assay [4], 64%; in assay [5], 47.8%. Also, the IC50 turned out to be 520 nM in assay [2], 540 nM in assay [3] and 6730 nM in assay [4].
For `Cc1[nH]c2c(c1C(=O)NCCN(C)C)CCC/C2=C1/C(=O)Nc2ccc(F)cc21` [I-6, N-(2-(dimethylamino)ethyl)-2-methyl-7-[1,2-dihydro-5-fluoro-2-oxo-3H-indol-(Z)-3-ylidene]-4,5,6,7-tetrahydro-1H-indole-3-carboxamide], the inhibition at 10 µM was 64.9% in assay [2], 61.9% in assay [3], 32.3% in assay [4] and 19.8% in assay [5]. For the same molecule, the IC50 in assay [2] was determined as 5990 nM; in assay [3], 4380 nM.
As to `Cc1[nH]c2c(c1C(=O)NCCCN(C)C)CCC/C2=C1/C(=O)Nc2ccc(Cl)cc21` [I-7, N-(3-(dimethylamino)propyl)-2-methyl-7-[1,2-dihydro-5-chloro-2-oxo-3H-indol-(Z)-3-ylidene]-4,5,6,7-tetrahydro-1H-indole-3-carboxamide], the inhibition at 10 µM in assay [2] came out at 69.5%; in assay [3], 78.4%; in assay [4], 75.9%; in assay [5], 51.8%. In addition, the half-inhibitory concentration (IC50) in assay [2] was found to be 3430 nM; in assay [3], 3060 nM; in assay [4] it was 2760 nM; in assay [5] it was 6630 nM.
Regarding `Cc1[nH]c2c(c1C(=O)NCCO)CCC/C2=C1/C(=O)Nc2ccccc21` [I-8, N-(2-hydroxyethyl)-2-methyl-7-[1,2-dihydro-2-oxo-3H-indol-(Z)-3-ylidene]-4,5,6,7-tetrahydro-1H-indole-3-carboxamide], the inhibition at 10 µM stood at 0.24% in assay [1]; 74.9% in assay [2]; 84.8% in assay [3]; 47% in assay [4]; 5.66% in assay [5]. This molecule came in with a concentration for half-maximal inhibition (IC50) in assay [2] of 1170 nM.
Regarding `Cc1[nH]c2c(c1C(=O)NCCO)CCC/C2=C1/C(=O)Nc2ccc(F)cc21` [I-9, N-(2-hydroxyethyl)-2-methyl-7-[1,2-dihydro-5-fluoro-2-oxo-3H-indol-(Z)-3-ylidene]-4,5,6,7-tetrahydro-1H-indole-3-carboxamide], the inhibition at 10 µM was 16.3% in assay [1]; 63.7% in assay [2]; 66.7% in assay [3]; 42.1% in assay [4]; 0% in assay [5].
For `Cc1[nH]c2c(c1C(=O)N1CCN(C)CC1)CCC/C2=C1/C(=O)Nc2ccc(F)cc21` [I-14, 2-methyl-3-(4-methylpiperazine-1-carbonyl)-7-[1,2-dihydro-5-fluoro-2-oxo-3H-indol-(Z)-3-ylidene]-4,5,6,7-tetrahydro-1H-indole] the same measures were 4.43%, 68.3%, 43.3%, 39.4% and 14%.
Regarding `CCN(CC)CC(O)CNC(=O)c1c(C)[nH]c2c1CCC/C2=C1/C(=O)Nc2ccccc21` (stereo not shown) [I-63, N-(3-(diethylamino)-2-hydroxypropyl)-2-methyl-7-[1,2-dihydro-2-oxo-3H-indol-(Z)-3-ylidene]-4,5,6,7-tetrahydro-1H-indole-3-carboxamide], the inhibition at 10 µM in assay [1] is 61.8%; in assay [2], 97.3%; in assay [3], 92.7%; in assay [4], 80.8%; in assay [5] it was 92.1%. For the same molecule, the IC50 in assay [1] is 2010 nM; in assay [2], 1160 nM; in assay [3], 1020 nM; in assay [4], 1850 nM; in assay [5], 660 nM.
As for `Cc1[nH]c2c(c1C(=O)NCC(O)CN1CCOCC1)CCC/C2=C1/C(=O)Nc2ccc(F)cc21` (stereo not shown) [I-68, N-(2-hydroxy-3-morpholinopropyl)-2-methyl-7-[1,2-dihydro-5-fluoro-2-oxo-3H-indol-(Z)-3-ylidene]-4,5,6,7-tetrahydro-1H-indole-3-carboxamide], the inhibition at 10 µM turned out to be 61.1% in assay [1]; 60.7% in assay [2]; 31.3% in assay [3]; 55.4% in assay [4]; 34.3% in assay [5]. Besides, the IC50 was determined as 5490 nM in assay [1], 6490 nM in assay [2] and 7590 nM in assay [4].
In the case of `Cc1[nH]c2c(c1C(=O)NCC(O)CN1CCCC1)CCC/C2=C1/C(=O)Nc2ccccc21` (stereo not shown) [I-70, N-(2-hydroxy-3-(pyrrolidin-1-yl)propyl)-2-methyl-7-[1,2-dihydro-2-oxo-3H-indol-(Z)-3-ylidene]-4,5,6,7-tetrahydro-1H-indole-3-carboxamide], the inhibition at 10 µM in assay [1] was 76.3%; in assay [2], 98.7%; in assay [3], 94.7%; in assay [4], 84.8%; in assay [5] it was 97.4%. Besides, the IC50 was 1030 nM in assay [1]; 970 nM in assay [2]; 930 nM in assay [3]; 1490 nM in assay [4]; 1630 nM in assay [5].
